For five compounds, EC50 results are on record in patent US20210115104A1, “AMYLIN ANALOGUES” (Zealand Pharma A/S, priority 2015, published 2021).

pEC50: −log10 of the molar value. *1 amine or outer side, *2 acyl side, *3 side chain or, on linkers, in order; H or OH if unused. Where a SMILES comes first, the peptide text is derived from it. Bridges are numbered along the chain shown (N, C = ends). [ ]: non-standard residue; d: D form. The star is where a group is joined. C20 diacid = O=C(O)CCCCCCCCCCCCCCCCCCC(=O)*; γGlu = O=C(O)[C@H](CCC(=O)[*:2])N[*:1]; Hyp = O=C(O)[C@@H]1C[C@@H](O)CN1; NMeI = CC[C@H](C)[C@H](NC)C(=O)O; Aad = N[C@@H](CCCC(=O)O)C(=O)O; Orn = NCCC[C@H](N)C(=O)O; Sar = CNCC(=O)O

In test [1] the target is T1, human calcitonin receptor (hCTR2) (Homo sapiens, UniProt P30988).
T1 construct: expressed in transfected cells
T1 sequence (P30988 25-474): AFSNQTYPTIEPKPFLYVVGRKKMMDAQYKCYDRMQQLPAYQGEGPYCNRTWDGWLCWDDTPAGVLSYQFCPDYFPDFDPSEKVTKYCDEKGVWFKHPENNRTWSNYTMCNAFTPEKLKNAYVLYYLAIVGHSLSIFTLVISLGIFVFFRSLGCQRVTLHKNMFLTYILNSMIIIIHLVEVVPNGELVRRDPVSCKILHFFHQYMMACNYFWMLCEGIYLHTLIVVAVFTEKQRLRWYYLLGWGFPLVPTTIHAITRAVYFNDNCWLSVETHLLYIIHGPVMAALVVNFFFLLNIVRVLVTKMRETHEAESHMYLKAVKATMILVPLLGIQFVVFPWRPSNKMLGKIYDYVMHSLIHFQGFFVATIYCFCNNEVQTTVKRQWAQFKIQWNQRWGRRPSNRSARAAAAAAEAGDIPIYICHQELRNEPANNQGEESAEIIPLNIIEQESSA
Kind of test: hCTR2 cAMP assay (AlphaScreen) in COS7 cells. Format: cell-based. Particulars: cAMP induction, COS7 cells expressing hCTR2; Table 1; read-out: hCTR2 EC50. The method, boiled down: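 cAMP induction, read by AlphaScreen after lysis, gives EC50 values via 4PL curve fitting. Peptides were applied at rising concentrations for 15 min at 37 °C, with IBMX and 0.1% casein in HEPES-buffered Tyrode pH 7.4, to COS7 cells (no endogenous RAMPs) stably expressing human CTR2.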

In test [2] the target is T2, human amylin receptor 3 (hAMYR3), hCTR2 co-expressed with hRAMP3 (Homo sapiens, UniProt O60896+P30988).
T2 construct: expressed in transfected cells
T2 sequence (P30988 25-474): T1 sequence (P30988 25-474)
T2 sequence (O60896 24-148 partner): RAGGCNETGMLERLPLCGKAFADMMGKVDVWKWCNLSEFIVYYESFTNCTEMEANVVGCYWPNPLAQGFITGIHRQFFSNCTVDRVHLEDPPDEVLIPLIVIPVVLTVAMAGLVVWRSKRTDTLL
Nature of the test: hAMYR3 cAMP assay (AlphaScreen) in COS7 cells. The format is cell-based. The following applies: cAMP induction, COS7 cells expressing hAMYR3; Table 1; read-out: hAMYR3 EC50. An excerpt:
The cell line COS7, originating from African Green Monkey kidney fibroblast cells, was used for establishment of the stable cell lines described below. The COS7 cellular background was used due to it being RAMP naïve, and as such it provides the best available system for testing of the monomeric hCTR and different heterodimeric amylin receptor subtypes functionally generated by introduction of the individual RAMPs.
A cell line expressing the human amylin receptor 3 (hAMYR3) was generated in the COS7 cellular background as stable clones. In brief, hCTR2 (GI:4502547) and hRAMP3 (GI:118572586) were amplified by PCR using primers encoding terminal restriction sites for subcloning. The 5′-end primers additionally encoded a near Kozak consensus sequence to ensure efficient translation. The fidelity of the DNA encoding the receptor was confirmed by DNA sequencing. The PCR products encoding the receptor were subcloned into a proprietary tri-cistronic mammalian expression vector with RAMP3, hCTR2 and neomycin (G418) resistance marker. The mammalian expression vector encoding the receptor was transfected into COS7 cells by a standard liposome transfection method. 48 hours post-transfection, cells were seeded for limited dilution cloning and selected with 1 mg/ml G418 in the culture medium. After 3 weeks, surviving colonies of hAMY3R-expressing cells were picked, propagated and tested in the amylin efficacy assay as described in Example 3 below. The functional generation of the amylin receptor phenotype was verified in the efficacy assay by a left-shifted efficacy response to amylin relative to monomeric calcitonin receptor, and one hAMYR3-expressing clone was chosen for compound profiling.
In vitro activity of test peptides at the hCTR2 and hAMYR3 receptors was assessed by measuring the induction of cAMP following stimulation of the receptor using the AlphaScreen® cAMP Assay kit from Perkin-Elmer.
Briefly, COS7 cells expressing hCTR2 (see Example 2, above) were seeded at 30-40,000 cells per well in 96-well microtiter plates coated with 0.01% poly-L-lysine, and grown for 1 day in culture in 100 μl growth medium [DMEM, 10% FCS, Penicillin (100 IU/ml), Streptomycin (100 μg/ml)]. On the day of analysis, growth medium was removed and the cells were washed once with 200 μl Tyrode buffer [Tyrode's Salts (9.6 g/I), 10 mM HEPES, pH 7.4]. Cells were incubated in 100 μl Tyrode buffer containing increasing concentrations of test peptides, 100 µM IBMX and 0.1% casein for 15 min at 37° C. The reaction was stopped by carefully decanting off the compound/buffer medium and replacing it with lysis/detection buffer (80 μl 0.1% w/v BSA, 5 mM HEPES, 0.3% v/v Tween-20 in deionized water). After incubation at room temperature for 10 min., the cAMP content of the resulting cell lysate was estimated according to the AlphaScreen® cAMP Assay manufacturer's instructions. EC50 values were estimated by computer-aided curve fitting using the 4-parameter logistic (4PL) non-linear model.

Take `CC[C@H](C)[C@@H](C(=O)N[C@@H](CC(C)C)C(=O)N[C@@H](CO)C(=O)N[C@@H](CO)C(=O)N[C@H](C(=O)N[C@@H](CCC(=O)O)C(=O)N[C@H](C(=O)NCC(=O)N[C@@H](CO)C(=O)N[C@@H](Cc1ccccc1)C(=O)N[C@H](C(=O)N1C[C@H](O)C[C@H]1C(N)=O)[C@@H](C)O)C(C)C)[C@@H](C)O)N(C)C(=O)[C@H](C)NC(=O)CN(C)C(=O)[C@H](Cc1ccccc1)NC(=O)[C@H](CO)NC(=O)[C@H](CO)NC(=O)[C@H](CCCNC(=N)N)NC(=O)[C@H](CC(N)=O)NC(=O)[C@H](CC(C)C)NC(=O)[C@H](Cc1ccccc1)NC(=O)[C@H](Cc1c[nH]cn1)NC(=O)[C@H](C)NC(=O)[C@H](CC(C)C)NC(=O)[C@H](CCCNC(=N)N)NC(=O)[C@H](CCC(=O)O)NC(=O)[C@@H](NC(=O)[C@H](C)NC(=O)[C@@H]1CSSC[C@H](NC(=O)[C@H](CCCNC(=N)N)NC(=O)CC[C@H](NC(=O)CCCCCCCCCCCCCCCCCCC(=O)O)C(=O)O)C(=O)NCC(=O)N[C@@H]([C@@H](C)O)C(=O)N[C@@H](C)C(=O)N[C@@H]([C@@H](C)O)C(=O)N1)[C@@H](C)O` [Compound 33, [19CD]-isoGlu-R-C( )-GTAT-C( )-ATERLAHFLNRSSF-Gly(Me)-A-Ile(Me)-LSSTEVGSFT-Hyp-NH2] ({C20 diacid-γGlu}-RCGTATCATERLAHFLNRSSF[Sar]A[NMeI]LSSTEVGSFT[Hyp]-NH2; disulfide 2-7): the pEC50 in test [1] was 9.96; in test [2], 9.82.
As for `CC[C@H](C)[C@@H](C(=O)N[C@@H](CC(C)C)C(=O)N[C@@H](CO)C(=O)N[C@@H](CO)C(=O)N[C@H](C(=O)N[C@@H](CCC(=O)O)C(=O)N[C@H](C(=O)NCC(=O)N[C@@H](CO)C(=O)N[C@@H](CO)C(=O)N[C@H](C(=O)N1CCC[C@H]1C(N)=O)[C@@H](C)O)C(C)C)[C@@H](C)O)N(C)C(=O)[C@H](C)NC(=O)CN(C)C(=O)[C@H](Cc1ccccc1)NC(=O)[C@H](CO)NC(=O)[C@H](CO)NC(=O)[C@H](CCCNC(=N)N)NC(=O)[C@H](Cc1c[nH]cn1)NC(=O)[C@H](CC(C)C)NC(=O)[C@H](Cc1ccccc1)NC(=O)[C@H](Cc1c[nH]cn1)NC(=O)[C@H](C)NC(=O)[C@H](CC(C)C)NC(=O)[C@H](CCCNC(=N)N)NC(=O)[C@H](CCC(=O)O)NC(=O)[C@@H](NC(=O)[C@H](C)NC(=O)[C@@H]1CSSC[C@H](NC(=O)[C@H](CCCNC(=N)N)NC(=O)CC[C@H](NC(=O)CCCCCCCCCCCCCCCCCCC(=O)O)C(=O)O)C(=O)NCC(=O)N[C@@H]([C@@H](C)O)C(=O)N[C@@H](C)C(=O)N[C@@H]([C@@H](C)O)C(=O)N1)[C@@H](C)O` [Compound 37, [19CD]-isoGlu-R-C( )-GTAT-C( )-ATERLAHFLHRSSF-Gly(Me)-A-Ile(Me)-LSSTEVGSSTP-NH2] ({C20 diacid-γGlu}-RCGTATCATERLAHFLHRSSF[Sar]A[NMeI]LSSTEVGSSTP-NH2; disulfide 2-7), the pEC50 is 10.40 in test [1] and 10.15 in test [2].
Consider `CC[C@H](C)[C@@H](C(=O)N[C@@H](CC(C)C)C(=O)N[C@@H](CO)C(=O)N[C@@H](CO)C(=O)N[C@H](C(=O)N[C@@H](CCC(=O)O)C(=O)N[C@H](C(=O)NCC(=O)N[C@@H](CO)C(=O)N[C@@H](Cc1ccccc1)C(=O)N[C@H](C(=O)N1CCC[C@H]1C(N)=O)[C@@H](C)O)C(C)C)[C@@H](C)O)N(C)C(=O)[C@H](C)NC(=O)CN(C)C(=O)[C@H](Cc1ccccc1)NC(=O)[C@H](CO)NC(=O)[C@H](CO)NC(=O)[C@H](CCCNC(=N)N)NC(=O)[C@H](CCC(N)=O)NC(=O)[C@H](CC(C)C)NC(=O)[C@H](Cc1ccccc1)NC(=O)[C@H](Cc1c[nH]cn1)NC(=O)[C@H](C)NC(=O)[C@H](CC(C)C)NC(=O)[C@H](CCCNC(=N)N)NC(=O)[C@H](CCC(=O)O)NC(=O)[C@@H](NC(=O)[C@H](C)NC(=O)[C@@H]1CSSC[C@H](NC(=O)[C@H](CCCNC(=N)N)NC(=O)CC[C@H](NC(=O)CCCCCCCCCCCCCCCCCCC(=O)O)C(=O)O)C(=O)NCC(=O)N[C@@H]([C@@H](C)O)C(=O)N[C@@H](C)C(=O)N[C@@H]([C@@H](C)O)C(=O)N1)[C@@H](C)O` [Compound 39, [19CD]-isoGlu-R-C( )-GTAT-C( )-ATERLAHFLQRSSF-Gly(Me)-A-Ile(Me)-LSSTEVGSFTP-NH2] ({C20 diacid-γGlu}-RCGTATCATERLAHFLQRSSF[Sar]A[NMeI]LSSTEVGSFTP-NH2; disulfide 2-7), for which the pEC50 in test [1] is 9.80; in test [2], 9.66.
The like results for `CC[C@H](C)[C@@H](C(=O)N[C@@H](CC(C)C)C(=O)N[C@@H](CO)C(=O)N[C@@H](CO)C(=O)N[C@H](C(=O)N[C@@H](CCC(=O)O)C(=O)N[C@H](C(=O)NCC(=O)N[C@@H](CO)C(=O)N[C@@H](Cc1ccccc1)C(=O)N[C@H](C(=O)N1CCC[C@H]1C(N)=O)[C@@H](C)O)C(C)C)[C@@H](C)O)N(C)C(=O)[C@H](C)NC(=O)CN(C)C(=O)[C@H](Cc1ccccc1)NC(=O)[C@H](CO)NC(=O)[C@H](CO)NC(=O)[C@H](CCCNC(=N)N)NC(=O)[C@H](CC(N)=O)NC(=O)[C@H](CC(C)C)NC(=O)[C@H](Cc1ccccc1)NC(=O)[C@H](Cc1c[nH]cn1)NC(=O)[C@H](C)NC(=O)[C@H](CC(C)C)NC(=O)[C@H](CCCNC(=N)N)NC(=O)[C@H](CCC(=O)O)NC(=O)[C@@H](NC(=O)[C@H](C)NC(=O)[C@@H]1CSSC[C@H](NC(=O)[C@H](CCCNC(=N)N)NC(=O)CC[C@H](NC(=O)CCCCCCCCCCCCCCCCCCC(=O)O)C(=O)O)C(=O)NCC(=O)N[C@@H]([C@@H](C)O)C(=O)N[C@@H](C)C(=O)N[C@@H]([C@@H](C)O)C(=O)N1)[C@@H](C)O` [Compound 40, [19CD]-isoGlu-R-C( )-GTAT-C( )-ATERLAHFLNRSSF-Gly(Me)-A-Ile(Me)-LSSTEVGSFTP-NH2] ({C20 diacid-γGlu}-RCGTATCATERLAHFLNRSSF[Sar]A[NMeI]LSSTEVGSFTP-NH2; disulfide 2-7) were, in that order, 9.92 and 9.72.
The like results for `CC[C@H](C)[C@@H](C(=O)N[C@@H](CC(C)C)C(=O)N[C@@H](CO)C(=O)N[C@@H](CO)C(=O)N[C@H](C(=O)N[C@@H](CCC(=O)O)C(=O)N[C@H](C(=O)NCC(=O)N[C@@H](CO)C(=O)N[C@@H](CCCN)C(=O)N[C@H](C(=O)N1C[C@H](O)C[C@H]1C(N)=O)[C@@H](C)O)C(C)C)[C@@H](C)O)N(C)C(=O)[C@H](C)NC(=O)CN(C)C(=O)[C@H](Cc1ccccc1)NC(=O)[C@H](CO)NC(=O)[C@H](CO)NC(=O)[C@H](CCCNC(=N)N)NC(=O)[C@@H](NC(=O)[C@H](CC(C)C)NC(=O)[C@H](Cc1ccccc1)NC(=O)[C@H](CCCC(=O)O)NC(=O)[C@H](C)NC(=O)[C@H](CC(C)C)NC(=O)[C@H](CCCNC(=N)N)NC(=O)[C@H](CCC(=O)O)NC(=O)[C@@H](NC(=O)[C@H](C)NC(=O)[C@@H]1CSSC[C@H](NC(=O)[C@H](CCCNC(=N)N)NC(=O)CC[C@H](NC(=O)CCCCCCCCCCCCCCCCCCC(=O)O)C(=O)O)C(=O)NCC(=O)N[C@@H]([C@@H](C)O)C(=O)N[C@@H](C)C(=O)N[C@@H]([C@@H](C)O)C(=O)N1)[C@@H](C)O)[C@@H](C)O` [Compound 44, [19CD]-isoGlu-R-C( )-GTAT-C( )-ATERLA-Aad-FLTRSSF-Gly(Me)-A-Ile(Me)-LSSTEVGS-Orn-T-Hyp-NH2] ({C20 diacid-γGlu}-RCGTATCATERLA[Aad]FLTRSSF[Sar]A[NMeI]LSSTEVGS[Orn]T[Hyp]-NH2; disulfide 2-7) were, in that order, 9.70 and 9.52.
